# Patent US20150087619A1, “METHOD OF MITIGATING VIRUS ASSOCIATED END-ORGAN DAMAGE” (CHIMERIX, INC., priority 2012, published 2015)
# Values joined by “and” are separate entries in the source; they are usually repeats but may differ in a detail not shown here. Equal entries are not always repeated. “Also recorded” adds a separate entry of the source.
# What was measured:
# [1] = test system: EBV; experiment: In vitro antiviral activity in cell culture; assay type: cell-based; settings: human gammaherpesvirus 4
# [2] = test system: BKV; experiment: In vitro antiviral activity in cell culture; assay type: cell-based
# [3] = Pharmacokinetic analysis in pediatric and geriatric patients; assay type: in vivo, human
# Protocol: This study population included five children. Pediatric patients received approximate doses of 1, 2, 3, or 4 mg/kg given once or twice weekly. […] Variability in PK parameters for this age group was high with respect to AUC, Cmax, and CL/F. In general, pediatric patients had lower plasma concentrations of HDP-CDV and CDV than adult healthy volunteers or patients on the same dose and schedule.
# The study population also included 3 elderly adults. Geriatric patients received approximate doses of 1, 2, or 3 mg/kg given either once or twice weekly. Similar to pediatric patients, the medical condition of geriatric patients varied widely. Variability in PK parameters for this age group was high with respect to AUC, Cmax, and CL/F. In general, geriatric patients had higher plasma concentrations of HDP-CDV and CDV and lower CL/F than those observed in younger healthy volunteers or patients.
# High CDV CL/fm values were also observed in children.
# [4] = test system: BKV; experiment: Study HDP-CDV-201: hematuria and BKV bladder events; assay type: in vivo, human
# Protocol: A multicenter, randomized, double-blind, placebo-controlled, dose-escalation study of safety, tolerability, and ability of HDP-CDV to prevent or control […], and EBV infection and associated disorders was conducted. During enrollment of patients in the study, urine samples of candidate patients were routinely screened for BKV. Plasma was collected from patients who tested positive for BKV viruria in urine, and AdV, EBV and BKV level in the plasma was evaluated.
# [5] = test system: CMV; experiment: HDP-CDV given to patients with viral infections, virology data; settings: patient
# [6] = test system: BKV; experiment: Study HDP-CDV-201: serum creatinine as marker of renal function; settings: for Creatinine level and renal function vs placebo: BKU+ at baseline (post-HSCT engraft)
# [7] = Phase 1 comparative bioavailability (solution vs tablet) and food effect study; settings: for Plasma HDP-CDV CL/F / Plasma HDP-CDV Tmax / Plasma HDP-CDV AUC0-inf / Plasma HDP-CDV AUC0-last / Plasma HDP-CDV Cmax / Plasma HDP-CDV t1/2: single oral dose; for Plasma HDP-CDV CL/F / Plasma HDP-CDV Tmax / Plasma HDP-CDV AUC0-inf / Plasma HDP-CDV AUC0-last / Plasma HDP-CDV Cmax / Plasma HDP-CDV t1/2 / Plasma Cidofovir CL/F: healthy volunteers; for Plasma HDP-CDV CL/F / Plasma HDP-CDV AUC0-inf / Plasma HDP-CDV AUC0-last / Plasma HDP-CDV Cmax / Plasma HDP-CDV t1/2 / Plasma Cidofovir CL/F: mean; for Plasma HDP-CDV Tmax: median;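 on all read-outs here: plasma levels quantified by validated LC-MS/MS, LLOQ 0.1 ng/mL for HDP-CDV and 0.5 ng/mL for CDV, crossover design with 14-day washout between single doses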
# [8] = 40 mg tablet, fed (high fat breakfast)
compound,measurement,setting,value
CCCCCCCCCCCCCCCCOCCCOP(=O)(O)COC(CO)Cn1ccc(N)nc1=O (centres unmarked) [HDP-CDV],EC50,[1],40 nM
same,EC50,[2],130 nM
same,CDV CL/fm values,[3]; children,High
same,CL/F vs younger healthy volunteers or patients,[3]; geriatric patients aged 66-68 years,lower
same,plasma concentrations of HDP-CDV and CDV vs younger healthy volunteers or patients,"[3]; geriatric patients aged 66-68 years, approx. 1-3 mg/kg once or twice weekly",higher
same,CL/F values vs older subjects,[3]; patients <20 years of age,higher
same,developed Hem+ during the Study,"[4]; BK viruria positive (BKU+) at Baseline, 4 of 77, placebo 33%",5%
same,clinical bladder adverse events related to BKV,"[4]; BKU+ subjects at Baseline (6/77), placebo 12.5-13%",8% and 7.8%
same,Hem+,[4]; BKU− subjects,4%
same,Hem+ vs placebo,"[4]; BKV viruria negative (BKU−) at baseline, FIG. 1",no significant difference
same,BKV associated adverse bladder events,[4]; HDP-CDV treatment vs placebo,decreased frequency; also recorded: decreased the incidence; also recorded: beneficial effect
same,rate of confirmed blood positive urinalyses relative to placebo-treated subjects,[4]; HDP-CDV- compared to placebo-treated,⅙^th
same,Hematuria (Hem+) vs placebo,"[4]; HSCT patients with BKV at base line (BKU+), FIG. 1",prevented Hematuria; also recorded: reduces hematuria
same,BK-related bladder events (cystitis or blood in urine),"[4]; all HDP-CDV subjects (6/171), placebo 5.1%",3.5%
same,rate of blood positive urinalyses during the treatment period,"[4]; all HDP-CDV-treated subjects (8/171), placebo 15.2%",4.7%
same,subjects with BK-related bladder AEs,[4]; received 40 mg QW,2
same,microscopic hematuria,[4]; subjects shedding BKV in their urine,reduction in microscopic hematuria
same,BK-related bladder AEs,[4]; subjects who received doses >100 mg QW (4/171),2.3%
same,difference between pooled HDP-CDV- and placebo-treated groups in rates of confirmed blood positive urinalyses,[4]; subjects with BKV viruria during the treatment period,~6 fold
same,rate of confirmed blood positive urinalyses,"[4]; subjects with BKV viruria during the treatment period (4/171), placebo 13.6%",2.3%
same,rate of blood positive urinalyses,"[4]; subjects without BK viruria, placebo 1.7%",2.4%
same,decrease in CMV viremia,"[5]; 61 kg, GCV res (UL97), 3 mg/kg BIW, first month of dosing",GCV res (UL97). There was a 1.9 log10
same,CMV viremia 4 days after the third dose,"[5]; 63.3 kg, refractory CMV, UL97 and UL54 mutations, 4 mg/kg BIW, from 9200 copies/mL",first day of dosing to 1000 copies/mL 4
same,CMV after dosing interruption,"[5]; 63.3 kg, refractory CMV, 4 mg/kg BIW",interrupted resulting in virologic rebound.
same,CMV suppression during therapy,"[5]; 69 kg, 2 mg/kg, 1 mg/kg second dose, then 2 mg/kg BIW, after discontinuation of ganciclovir",CMV suppression continued during HDP-
same,CMV viremia during therapy,"[5]; 72.8 kg, post lung transplant CMV, 3 mg/kg BIW",There was no change in CMV viremia
same,"rates of creatinine elevations or creatinine or heme+ urine, HDP-CDV vs placebo",[6]; 105 subjects consistently BK negative,numerically similar
same,creatinine elevations >120 microM and =>25% increase over baseline,"[6]; BK negative throughout (7/78), placebo 7.4%",9.0%
same,"creatinine elevations (>120 last and >25% increase from baseline) OR 1+ heme, confirmed, new onset","[6]; BK negative throughout (11/78), placebo 11.1%",14.1%
same,end of treatment creatinine elevations >120 microM and =>25% over baseline,"[6]; BK positive during treatment (7/93), placebo 18.75%",7.5%
same,"creatinine elevations (>120 last and >25% increase from baseline) OR 1+ heme, confirmed, new onset","[6]; BK positive during treatment (11/93), placebo 37.5%",11.8%
same,"difference in frequency between treatments, creatinine elevations or new onset heme+ urinalyses",[6]; BK-positive subjects,3.2 fold
same,Creatinine level and renal function vs placebo,[6]; FIG. 2,prevented increase in Creatinine level and worsening of renal function
same,Creatinine level and renal function vs placebo,"[6]; FIG. 2, listed as HDP-cidofovir",reduces renal impairment
same,developed renal impairment,"[6]; BKU+ subjects (10/77), placebo 29%",13%
same,end organ damage vs placebo,"[6]; BKU− at baseline, FIG. 2",did not impact the end organ damage
same,renal impairment,"[6]; BKU− subjects (6/94), placebo 6%",6%
same,efficacy of twice weekly dosing,[6]; Study HDP-CDV-201 retrospective analysis,equally or more effective
same,reduction of the incidence of renal dysfunction (creatinine elevations) vs placebo,[6]; subjects BK viruric during the treatment period,2.5 fold
same,Plasma HDP-CDV CL/F,"[7]; 40 mg solution, fasted",77.5 L/h
same,Plasma HDP-CDV Tmax,"[7]; 40 mg solution, fasted",2.00 h
same,Plasma HDP-CDV AUC0-inf,"[7]; 40 mg tablet, fasted",496 ng·h/mL
same,Plasma HDP-CDV AUC0-last,"[7]; 40 mg tablet, fasted",473 ng·h/mL
same,Plasma HDP-CDV CL/F,"[7]; 40 mg tablet, fasted",86.1 L/h
same,Plasma HDP-CDV Cmax,"[7]; 40 mg tablet, fasted",73.9 ng/mL
same,Plasma HDP-CDV t1/2,"[7]; 40 mg tablet, fasted",7.52 h
same,Plasma HDP-CDV Tmax,"[7]; 40 mg tablet, fasted",3.00 h
same,Plasma HDP-CDV AUC0-inf,[7]; [8],367 ng·h/mL
same,Plasma HDP-CDV AUC0-last,[7]; [8],340 ng·h/mL
same,Plasma HDP-CDV CL/F,[7]; [8],119 L/h
same,Plasma HDP-CDV Cmax,[7]; [8],39.4 ng/mL
same,Plasma HDP-CDV t1/2,[7]; [8],6.65 h
same,Plasma HDP-CDV Tmax,[7]; [8],6.00 h
same,food effect on HDP-CDV absorption and bioavailability,"[7]; 40 mg tablet, high fat meal vs fasted",reduced peak concentration and delayed Tmax; also recorded: significant food effect
same,Plasma Cidofovir CL/F,"[7]; after 40 mg HDP-CDV solution, fasted",40.8 L/h
same,Plasma Cidofovir CL/F,"[7]; after 40 mg HDP-CDV tablet, fasted",44.3 L/h
same,Plasma Cidofovir CL/F,"[7]; after 40 mg HDP-CDV tablet, fed",46.9 L/h
same,food effect on CDV concentrations,"[7]; after 40 mg HDP-CDV tablet, high fat meal vs fasted",unaffected by the presence of food; also recorded: no food effect
same,HDP-CDV Ln(AUCinf) Test Geometric LSM,"[7]; fed tablet (test), TOST",343.5310 ng·h/mL
same,HDP-CDV Ln(AUClast) Test Geometric LSM,"[7]; fed tablet (test), TOST",323.8453 ng·h/mL
same,HDP-CDV Ln(Cmax) Test Geometric LSM,"[7]; fed tablet (test), TOST",37.0360 ng/mL
same,HDP-CDV Ln(AUCinf) Ratio [% Ref],[7]; in vivo,72.17 % Ref
same,HDP-CDV Ln(AUClast) Ratio [% Ref],[7]; in vivo,70.89 % Ref
same,HDP-CDV Ln(Cmax) Ratio [% Ref],[7]; in vivo,52.56 % Ref
same,absorption following a single oral administration,"[7]; solution and tablet formulation, 40 mg",readily absorbed
